Reference: patent US12065436B2, “Cardiac sarcomere inhibitors” (Cytokinetics, Inc., priority 2018, dated 2024)

Biological target: bovine cardiac myofibrils (full-length cardiac myosin ATPase in the native sarcomere) (Bos taurus (Bovine), UniProt Q9BE39)
Assay: Skinned bovine cardiac myofibril ATPase assay (PK/LDH-coupled)
Assay type: biochemical
Settings: Ca2+ activating to 75% of maximal rate; for CDMF75 IC15: concentration giving 15% inhibition; for IC50: read-out: CDMF75 IC50
Protocol: To evaluate the effect of compounds on the ATPase activity of full-length cardiac myosin in the context of the native sarcomere, skinned myofibril assays were performed. Bovine cardiac myofibrils were obtained by homogenizing bovine cardiac left ventricular tissue in the presence of a detergent such as triton X-100. Such treatment removes membranes and a majority of the soluble cytoplasmic proteins but leaves intact the cardiac sarcomeric acto-myosin apparatus. Myofibril preparations retain the ability to hydrolyze ATP in an Ca^2+ regulated manner. ATPase activities of such myofibril preparations in the presence and absence of compounds were assayed at Ca^2+ concentrations activating to a defined fraction of the maximal rate (i.e., 25%, 75%). Small molecule agents were assessed for their ability to inhibit the steady-state ATPase activity of bovine cardiac myofibrils using pyruvate kinase and lactate dehydrogenase (PK/LDH)-coupled enzyme system. This assay regenerates myosin-produced ADP into ATP by oxidizing NADH, producing an absorbance change at 340 nm. Prior to testing small molecule agents, the bovine cardiac myofibrils were assessed for their calcium responsiveness and the calcium concentration that achieves either a 50% (pCa50) or 75% (pCa75) activation of the myofibril system was chosen as the final condition for assessing the inhibitory activity of the small molecule agents. All enzymatic activity was measured in a buffered solution containing 12 mM PIPES (piperazine-N,N′-bis(2-ethanesulfonic acid), 2 mM magnesium chloride at pH 6.8 (PM 12 buffer). Final assay conditions were 1 mg/mL of bovine cardiac myofibrils, 4 U/mL pyruvate kinase, 6 U/mL lactate dehydrogenase, 50 μM ATP, 0.1 mg/mL BSA (bovine serum albumin), 10 ppm antifoam, 1 mM DTT, 0.5 mM NADH, 1.5 mM PEP, 0.6 mM EGTA, and an amount of CaCl2) sufficient to achieve either 50% or 75% activation of the myofibril ATPase activity.

Chain of bovine cardiac myofibrils (full-length cardiac myosin ATPase in the native sarcomere) (Q9BE39 whole entry): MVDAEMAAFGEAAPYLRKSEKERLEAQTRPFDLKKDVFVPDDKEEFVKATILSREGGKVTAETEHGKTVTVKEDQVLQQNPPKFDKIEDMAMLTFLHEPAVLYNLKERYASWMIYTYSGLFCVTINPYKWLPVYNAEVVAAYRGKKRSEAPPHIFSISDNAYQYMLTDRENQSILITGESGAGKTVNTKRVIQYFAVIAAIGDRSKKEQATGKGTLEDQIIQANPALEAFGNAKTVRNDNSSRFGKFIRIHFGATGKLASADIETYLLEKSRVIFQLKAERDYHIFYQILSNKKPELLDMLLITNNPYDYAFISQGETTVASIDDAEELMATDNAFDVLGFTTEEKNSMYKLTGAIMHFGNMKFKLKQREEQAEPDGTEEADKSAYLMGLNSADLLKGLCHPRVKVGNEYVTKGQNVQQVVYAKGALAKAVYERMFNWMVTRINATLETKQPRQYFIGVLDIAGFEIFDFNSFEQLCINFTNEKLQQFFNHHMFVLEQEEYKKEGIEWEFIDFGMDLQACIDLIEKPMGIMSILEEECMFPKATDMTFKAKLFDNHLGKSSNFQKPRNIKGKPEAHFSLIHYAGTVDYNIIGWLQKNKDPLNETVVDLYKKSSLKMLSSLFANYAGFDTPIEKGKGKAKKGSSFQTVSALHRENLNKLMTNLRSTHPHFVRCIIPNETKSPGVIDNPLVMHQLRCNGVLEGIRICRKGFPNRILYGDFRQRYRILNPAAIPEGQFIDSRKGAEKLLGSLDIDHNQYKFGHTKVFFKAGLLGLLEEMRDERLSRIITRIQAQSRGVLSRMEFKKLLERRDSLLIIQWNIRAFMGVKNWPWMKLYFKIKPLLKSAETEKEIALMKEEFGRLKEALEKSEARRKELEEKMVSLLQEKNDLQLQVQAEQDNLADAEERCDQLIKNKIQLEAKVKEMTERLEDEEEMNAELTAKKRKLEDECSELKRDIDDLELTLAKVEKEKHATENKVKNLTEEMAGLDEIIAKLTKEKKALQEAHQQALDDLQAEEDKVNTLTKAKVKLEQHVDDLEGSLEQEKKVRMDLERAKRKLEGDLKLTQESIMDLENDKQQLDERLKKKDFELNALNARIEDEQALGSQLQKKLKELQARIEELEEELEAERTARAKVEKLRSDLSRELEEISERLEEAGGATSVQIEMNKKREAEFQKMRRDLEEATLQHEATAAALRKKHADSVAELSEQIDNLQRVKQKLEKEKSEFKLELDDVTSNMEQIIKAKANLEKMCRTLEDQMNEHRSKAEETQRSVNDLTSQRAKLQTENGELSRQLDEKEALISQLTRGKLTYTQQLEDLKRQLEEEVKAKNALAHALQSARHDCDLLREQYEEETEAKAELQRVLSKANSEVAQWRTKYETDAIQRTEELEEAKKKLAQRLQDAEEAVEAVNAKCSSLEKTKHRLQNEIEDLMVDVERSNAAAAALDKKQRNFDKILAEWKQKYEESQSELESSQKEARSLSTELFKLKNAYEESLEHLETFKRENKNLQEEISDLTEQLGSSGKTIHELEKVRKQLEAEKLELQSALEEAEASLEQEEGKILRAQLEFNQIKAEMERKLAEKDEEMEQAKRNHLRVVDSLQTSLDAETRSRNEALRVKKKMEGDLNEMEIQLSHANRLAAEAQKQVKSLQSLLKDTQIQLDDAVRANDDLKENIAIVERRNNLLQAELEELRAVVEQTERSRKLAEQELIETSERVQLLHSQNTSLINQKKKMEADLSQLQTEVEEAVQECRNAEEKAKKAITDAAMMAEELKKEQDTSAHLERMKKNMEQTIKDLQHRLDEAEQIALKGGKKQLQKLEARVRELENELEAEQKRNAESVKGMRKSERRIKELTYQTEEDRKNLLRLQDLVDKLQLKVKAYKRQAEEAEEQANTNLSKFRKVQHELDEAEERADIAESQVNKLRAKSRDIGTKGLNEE
Chain of bovine cardiac myofibrils (full-length cardiac myosin ATPase in the native sarcomere) (P85100 whole entry partner): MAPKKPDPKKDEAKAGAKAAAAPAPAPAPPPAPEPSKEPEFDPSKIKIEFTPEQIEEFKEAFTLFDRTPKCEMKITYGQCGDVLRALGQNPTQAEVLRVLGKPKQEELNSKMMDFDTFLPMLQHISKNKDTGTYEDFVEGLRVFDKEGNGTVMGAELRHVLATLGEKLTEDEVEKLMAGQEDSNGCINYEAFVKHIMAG
Chain of bovine cardiac myofibrils (full-length cardiac myosin ATPase in the native sarcomere) (Q3SZE5 whole entry partner): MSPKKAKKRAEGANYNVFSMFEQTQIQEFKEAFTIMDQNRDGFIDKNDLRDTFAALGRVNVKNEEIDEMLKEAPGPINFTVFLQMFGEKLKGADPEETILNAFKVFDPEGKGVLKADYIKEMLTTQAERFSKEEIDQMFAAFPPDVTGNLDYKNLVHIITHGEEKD

Question: `Cc1csc(C(=O)NC2CCc3cc(-c4noc(C)n4)ccc32)n1` (stereo not drawn) [Compound 63, 4-methyl-N-(5-(5-methyl-1,2,4-oxadiazol-3-yl)-2,3-dihydro-1H-inden-1-yl)thiazole-2-carboxamide] was tested. Which “CDMF75 IC15” value did it give?
Answer: The value was 2.3 µM.

Question: And the IC50?
Answer: Its IC50 is 10.1 µM.

Question: With `Cc1nc(-c2ccc3c(c2)CCC3NC(=O)c2nnn(C)n2)no1` (stereo not drawn) [Compound 64, 2-methyl-N-(5-(5-methyl-1,2,4-oxadiazol-3-yl)-2,3-dihydro-1H-inden-1-yl)-2H-tetrazole-5-carboxamide] as the compound, how does the “CDMF75 IC15” value read?
Answer: Its value is 1.2 µM.

Question: And the IC50?
Answer: Its IC50 is 5.1 µM.

Question: What does the source list for `Cc1nc(-c2ccc3c(c2)CCC3NC(=O)c2ccnn2C)no1` (stereo not drawn) [Compound 65, 1-methyl-N-(5-(5-methyl-1,2,4-oxadiazol-3-yl)-2,3-dihydro-1H-inden-1-yl)-1H-pyrazole-5-carboxamide]?
Answer: CDMF75 IC15: 0.8 µM; IC50: 3 µM

Question: With `Cc1nc(-c2ccc3c(c2)CC[C@H]3NC(=O)c2cnn(C)c2)no1` [Compound 66, (R)-1-methyl-N-(5-(5-methyl-1,2,4-oxadiazol-3-yl)-2,3-dihydro-1H-inden-1-yl)-1H-pyrazole-4-carboxamide] as the compound, how does the “CDMF75 IC15” value read?
Answer: Its value is 1.2 µM.

Question: And the IC50?
Answer: The IC50 was 4.5 µM.

Question: What does the source list for `Cc1ccnc(C(=O)NC2CCc3cc(-c4noc(C(F)F)n4)ccc32)c1` (stereo not drawn) [Compound 67, N-(5-(5-(difluoromethyl)-1,2,4-oxadiazol-3-yl)-2,3-dihydro-1H-inden-1-yl)-4-methylpicolinamide]?
Answer: CDMF75 IC15: 0.9 µM; IC50: 4.7 µM

Question: How did the “CDMF75 IC15” value turn out when `Cc1ccnc(C(=O)NC2CCc3cc(-c4noc(C)n4)ccc32)c1` (stereo not drawn) [Compound 68, 4-methyl-N-(5-(5-methyl-1,2,4-oxadiazol-3-yl)-2,3-dihydro-1H-inden-1-yl)picolinamide] was run?
Answer: The value was 1.6 µM.

Question: And the IC50?
Answer: The IC50 was 6.1 µM.

Question: For `Cc1n[nH]cc1C(=O)NC1CCc2cc(-c3noc(C(F)F)n3)ccc21` (stereo not drawn) [Compound 69, N-(5-(5-(difluoromethyl)-1,2,4-oxadiazol-3-yl)-2,3-dihydro-1H-inden-1-yl)-3-methyl-1H-pyrazole-4-carboxamide], which “CDMF75 IC15” value is on record?
Answer: Its value is 0.6 µM.

Question: What about the IC50 of the same compound?
Answer: Its IC50 is 2.3 µM.

Question: How did the “CDMF75 IC15” value turn out when `Cc1nc(-c2ccc3c(c2)CCC3NC(=O)c2c[nH]nc2C)no1` (stereo not drawn) [Compound 70, 3-methyl-N-(5-(5-methyl-1,2,4-oxadiazol-3-yl)-2,3-dihydro-1H-inden-1-yl)-1H-pyrazole-4-carboxamide] was run?
Answer: Its value is 1.4 µM.

Question: And the IC50?
Answer: The IC50 was 4.8 µM.

Question: How did the “CDMF75 IC15” value turn out when `Cc1n[nH]cc1C(=O)N[C@@H]1CCc2cc(-c3noc(C(F)F)n3)ccc21` [Compound 71, (R)-N-(5-(5-(difluoromethyl)-1,2,4-oxadiazol-3-yl)-2,3-dihydro-1H-inden-1-yl)-3-methyl-1H-pyrazole-4-carboxamide] was run?
Answer: The value was 0.4 µM.

Question: What about the IC50 of the same compound?
Answer: The IC50 was 1.2 µM.

Question: Which results are given for `Cc1oncc1C(=O)N[C@@H]1CCc2cc(-c3noc(C(F)F)n3)ccc21` [Compound 72, (R)-N-(5-(5-(difluoromethyl)-1,2,4-oxadiazol-3-yl)-2,3-dihydro-1H-inden-1-yl)-5-methylisoxazole-4-carboxamide]?
Answer: CDMF75 IC15: 0.3 µM; IC50: 1 µM

Question: What does the source list for `Cc1nn(C)cc1C(=O)NC1CCc2cc(-c3noc(C4CC4)n3)ccc21` (stereo not drawn) [Compound 73, N-(5-(5-cyclopropyl-1,2,4-oxadiazol-3-yl)-2,3-dihydro-1H-inden-1-yl)-1,3-dimethyl-1H-pyrazole-4-carboxamide]?
Answer: CDMF75 IC15: 0.7 µM; IC50: 2.5 µM

Question: How did the “CDMF75 IC15” value turn out when `CC(=O)OCc1nc(-c2ccc3c(c2)CCC3NC(=O)c2cn(C)nc2C)no1` (stereo not drawn) [Compound 74, (3-(1-(1,3-dimethyl-1H-pyrazole-4-carboxamido)-2,3-dihydro-1H-inden-5-yl)-1,2,4-oxadiazol-5-yl)methyl acetate] was run?
Answer: Its value is 22.3 µM.

Question: And the IC50?
Answer: The IC50 was > 39.2 µM.

Question: Which “CDMF75 IC15” value does the source give for `Cc1nn(C)cc1C(=O)NC1CCc2cc(-c3noc(C(C)C)n3)ccc21` (stereo not drawn) [Compound 75, N-(5-(5-isopropyl-1,2,4-oxadiazol-3-yl)-2,3-dihydro-1H-inden-1-yl)-1,3-dimethyl-1H-pyrazole-4-carboxamide] here?
Answer: Its value is 0.9 µM.

Question: And the IC50?
Answer: The IC50 was 3.1 µM.

Question: With `COCc1nc(-c2ccc3c(c2)CCC3NC(=O)c2cn(C)nc2C)no1` (stereo not drawn) [Compound 76, N-(5-(5-(methoxymethyl)-1,2,4-oxadiazol-3-yl)-2,3-dihydro-1H-inden-1-yl)-1,3-dimethyl-1H-pyrazole-4-carboxamide] as the compound, how does the “CDMF75 IC15” value read?
Answer: The value was 1.7 µM.

Question: And the IC50?
Answer: Its IC50 is 6.1 µM.

Question: Which results are given for `CC(=O)O[C@@H](C)c1nc(-c2ccc3c(c2)CCC3NC(=O)c2cn(C)nc2C)no1` (stereo partly drawn) [Compound 77, (1S)-1-(3-(1-(1,3-dimethyl-1H-pyrazole-4-carboxamido)-2,3-dihydro-1H-inden-5-yl)-1,2,4-oxadiazol-5-yl)ethyl acetate]?
Answer: CDMF75 IC15: 4.9 µM; IC50: 26 µM

Question: Which “CDMF75 IC15” value does the source give for `COC(=O)c1nc(-c2ccc3c(c2)CCC3NC(=O)c2cn(C)nc2C)no1` (stereo not drawn) [Compound 78, methyl 3-(1-(1,3-dimethyl-1H-pyrazole-4-carboxamido)-2,3-dihydro-1H-inden-5-yl)-1,2,4-oxadiazole-5-carboxylate] here?
Answer: Its value is 2.6 µM.

Question: And the IC50?
Answer: Its IC50 is 13.6 µM.

Question: `Cc1nn(C)cc1C(=O)NC1CCc2cc(-c3noc(CO)n3)ccc21` (stereo not drawn) [Compound 79, N-(5-(5-(hydroxymethyl)-1,2,4-oxadiazol-3-yl)-2,3-dihydro-1H-inden-1-yl)-1,3-dimethyl-1H-pyrazole-4-carboxamide] was tested. Which “CDMF75 IC15” value did it give?
Answer: The value was 4.6 µM.

Question: What about the IC50 of the same compound?
Answer: Its IC50 is 22.7 µM.

Question: Which results are given for `Cc1nn(C)cc1C(=O)NC1CCc2cc(-c3noc([C@H](C)O)n3)ccc21` (stereo partly drawn) [Compound 80, N-(5-(5-((S)-1-hydroxyethyl)-1,2,4-oxadiazol-3-yl)-2,3-dihydro-1H-inden-1-yl)-1,3-dimethyl-1H-pyrazole-4-carboxamide]?
Answer: CDMF75 IC15: 27.5 µM; IC50: > 39.2 µM

Question: What does the source list for `Cn1nnc(C(=O)NC2CCc3cc(-c4noc(C(F)F)n4)ccc32)n1` (stereo not drawn) [Compound 81, N-(5-(5-(difluoromethyl)-1,2,4-oxadiazol-3-yl)-2,3-dihydro-1H-inden-1-yl)-2-methyl-2H-tetrazole-5-carboxamide]?
Answer: CDMF75 IC15: 1.1 µM; IC50: 3.7 µM

Question: With `Cn1ncc(C(=O)NC2CCc3cc(-c4noc(C(F)F)n4)ccc32)n1` (stereo not drawn) [Compound 83, N-(5-(5-(difluoromethyl)-1,2,4-oxadiazol-3-yl)-2,3-dihydro-1H-inden-1-yl)-2-methyl-2H-1,2,3-triazole-4-carboxamide] as the compound, how does the “CDMF75 IC15” value read?
Answer: Its value is 1.9 µM.

Question: What about the IC50 of the same compound?
Answer: Its IC50 is 7.8 µM.

Question: With `Cc1nc(C(=O)NC2CCc3cc(-c4noc(C(F)F)n4)ccc32)no1` (stereo not drawn) [Compound 84, N-(5-(5-(difluoromethyl)-1,2,4-oxadiazol-3-yl)-2,3-dihydro-1H-inden-1-yl)-5-methyl-1,2,4-oxadiazole-3-carboxamide] as the compound, how does the “CDMF75 IC15” value read?
Answer: Its value is 2.7 µM.

Question: And the IC50?
Answer: Its IC50 is 10.8 µM.

Question: With `Cc1nc(-c2ccc3c(c2)CCC3NC(=O)Nc2ccncc2)no1` (stereo not drawn) [Compound 85, 1-(5-(5-methyl-1,2,4-oxadiazol-3-yl)-2,3-dihydro-1H-inden-1-yl)-3-(pyridin-4-yl)urea] as the compound, how does the “CDMF75 IC15” value read?
Answer: Its value is 5.5 µM.

Question: What about the IC50 of the same compound?
Answer: The IC50 was 24.1 µM.

Question: Which “CDMF75 IC15” value does the source give for `Cc1nc(C(=O)NC2CCc3cc(-c4noc(C)n4)ccc32)no1` (stereo not drawn) [Compound 87, 5-methyl-N-(5-(5-methyl-1,2,4-oxadiazol-3-yl)-2,3-dihydro-1H-inden-1-yl)-1,2,4-oxadiazole-3-carboxamide] here?
Answer: The value was 3.7 µM.

Question: What about the IC50 of the same compound?
Answer: Its IC50 is 15.7 µM.

Question: Which results are given for `Cc1nc(-c2ccc3c(c2)CCC3NC(=O)c2oncc2C)no1` (stereo not drawn) [Compound 88, 4-methyl-N-(5-(5-methyl-1,2,4-oxadiazol-3-yl)-2,3-dihydro-1H-inden-1-yl)isoxazole-5-carboxamide]?
Answer: CDMF75 IC15: 0.7 µM; IC50: 2.5 µM
